Source: patent US20220057378A1, “MICROBIAL MICROFLUIDIC BIOSENSOR” (priority 2015, published 2022)

What was measured:
pRS18 = assay: SVM classification of GFP sensor responses (toxin / no toxin); assay type: cell-based, E. coli; conditions: from classification accuracy and ROC curves; plasmid pRS18
From the text: (§1) Computational models to determine the threshold of detection for specific sensors based on models of experimental GFP responses. We used machine learning techniques to determine the relationships between the GFP output signal and the presence of a toxin. We have created a database containing the collected sensor response data. We have quantified the GFP threshold of detection for each sensor construct. We have constructed Receiver Operating Characteristic (ROC) curves for each sensor to achieve robust sensing. We constructed machine learning models capable of inferring the relationships between the GFP sensor responses and the presence or absence of a toxin at a given concentration. […] The optimal meta-parameters of the SVM classifier were determined by applying a 5-crossvalidation during the training phase (2). In order to have a reliable estimate of the performance of the model when deployed in real environments, we measured its performance over a set of samples (test patterns) not seen during the training phase. The SVM's performance was determined by the percentage of test samples correctly labeled as toxin/no toxin (classification accuracy). […]
(§2) In order to have a reliable estimate of the performance of the model when deployed in real environments, we measured its performance over a set of samples (test patterns) not seen during the training phase. […]

pZA47a = assay: as above; assay type: cell-based, E. coli; conditions: from classification accuracy and ROC curves
From the text: as §1, §2

As7 with luxCDABE operon = assay: plate reader induction of arsenic sensor, Lux reporter; assay type: cell-based; conditions: Tecan plate reader
Experimental: Luminescent reporters. […] In FIG. 8, we compare these reporters driven by an arsenic-responsive promoter, where the induction response was measured side-by-side using a Tecan plate reader.
(§3) For comparison, the arsenic concentration used for testing the GFP construct in a microfluidic device was 130 nM, or 0.13 μM. Thus, replacing GFP with Lux promises to greatly increase the sensitivity of the biosensor.
(§4) The arsenic sensor construct As7 was modified to replace the gfp gene with the luxCDABE operon, and relative induction (fluorescence or luminescence) of the two constructs was tested side-by-side using a Tecan Infinite M200 Pro plate reader (see FIG. 38). […] In contrast, the GFP construct was sensitive to arsenic only above a concentration of 26 nM. For comparison, we were able to detect an arsenic concentration of 130 nM using the GFP construct in a microfluidic device. Thus, replacing GFP with Lux promises to greatly increase the sensitivity of the biosensor.

As7 GFP construct = assay: arsenic detection with the GFP construct in a microfluidic device; assay type: cell-based
Experimental: as §3, §4

E. coli MG1655/As3 = assay: on-chip time-lapse induction of promoter construct (GFP, gill chip); assay type: cell-based
From the text: The on-chip time-lapse induction response of each promoter construct in this table can be seen in FIG. 36. In each figure panel, the moment of toxin introduction is represented as a step in the red trace.

E. coli MG1655/As7 = assay: 8-strain chip induction (fluorescence induction ratio); assay type: cell-based; conditions: toxin at t=0, pure water at t=2 hours; arsenic 0.2 μM
From the text: An overview of the sensor can be seen in FIG. 39. In order to acquire the large amount of data required to successfully train the classifier, five replicates of the fully self-contained device prototype were built, in which the microfluidic devices are mounted and imaged using custom-designed optics as shown in some embodiments herein (Milestone 6.9). The majority of the data for this project was acquired using a novel microfluidic device capable of housing eight different bacterial strains that receive media from a shared source. […] The design was expanded to house 18 strains and we have begun taking data with this new chip to provide larger datasets to the classifier. A detailed CAD drawing of this device can be seen in FIG. 56. The 18 cell trapping regions are vacuum-loaded from 18 downstream fluidic ports. Long, serpentine channels upstream of the trapping regions serve as fluidic buffer zones to prevent the cross-contamination of strains while loading. The toxin concentration is controlled dynamically by a peristaltic pump that mixes a water/toxin combination (representing the source water stream) with a concentrated medium stock.
In each panel, the time series data for the “on-target” responding strain is plotted in bold.

E. coli MG1655/As1 = assay: on-chip time-lapse induction of promoter construct (GFP, gill chip); assay type: cell-based
Experimental: (§5) For on-chip induction experiments, strains were loaded into the device and grown in M9 minimal medium with 0.4% glucose and 50 μg/ml spectinomycin (for plasmid maintenance) for 2 days in the absence of toxin. Cells were imaged under 4× brightfield and GFP fluorescence filters on an Olympus IX-81 microscope every 2 min for 6 h under these non-inducing conditions to generate a fluorescence baseline. The toxin was then introduced to induce GFP expression and the cells were imaged every 2 min for 6 h.
(§6) To determine the response to toxin induction, the raw fluorescence images before and after induction were compared. The image stacks were analyzed using a custom ImageJ script to measure the average GFP signal over time for each cell trap. Any linear trend in the uninduced fluorescence data due to cell growth was subtracted from the data. In this manner, the dynamic signal-to-noise ratio (SNR) was calculated as: (current fluorescence−mean uninduced fluorescence)/(standard deviation of uninduced fluorescence).
(§7) This microfluidic platform was then used to measure the response of several toxin responsive promoter constructs identified from the literature and synthesized by Transcriptic. […] Note that SNR values greater than 2 indicate a significant response.

E. coli MG1655/Cd1 = assay: as above; assay type: cell-based
Experimental: as §5, §6, §7

E. coli LABEC01/Cr5 = assay: as above; assay type: cell-based
Experimental: as §5, §6, §7

E. coli MG1655/Cu1 = assay: as above; assay type: cell-based
Experimental: as §5, §6, §7

E. coli LABEC01/Pb2 = assay: as above; assay type: cell-based
Experimental: as §5, §6, §7

[1] = 0.13 μM arsenic, 6 h induction, SNR > 2 = significant response

**Q.** With `[As]` [Arsenic] as the compound, how does the threshold of detection (pRS18) read?
**A.** 0.2 µM

**Q.** What about the threshold of detection (pZA47a) of the same compound?
**A.** 0.1 µM

**Q.** What about the “arsenic concentration detected, Lux construct” value (As7 with luxCDABE operon) of the same compound?
**A.** 0.2 nM

**Q.** What about the “arsenic concentration detected, GFP construct in microfluidic device” value (As7 GFP construct) of the same compound?
**A.** 130 nM

**Q.** And the “SNR after 6 h” value (E. coli MG1655/As3; [1])?
**A.** 33

**Q.** What about the “Concentration Sensed in Microfluidic Device” value (“Concentration Sensed” below) (E. coli MG1655/As3; arsR/parsR from E. coli genome, synthetic RBS) of the same compound?
**A.** 0.13 µM

**Q.** And the “GFP response of strain As7” value (E. coli MG1655/As7)?
**A.** sensitively responding

**Q.** And the “SNR after 6 h” value (E. coli MG1655/As1; [1])?
**A.** 20

**Q.** And the “Concentration Sensed” value (E. coli MG1655/As1; arsR/parsR from E. coli plasmid, native RBS)?
**A.** 0.13 µM

**Q.** What does the source list for `[Cd]` [Cadmium]?
**A.** SNR after 6 h (E. coli MG1655/Cd1; 0.04 μM cadmium, 6 h induction, SNR > 2 = significant response): 17; Concentration Sensed in Microfluidic Device (E. coli MG1655/Cd1; cadC/pcadC from S. aureus plasmid, native RBS): 0.04 µM

**Q.** With `[Cr+6]` [Chromium(VI)] as the compound, how does the “SNR after 6 h” value (E. coli LABEC01/Cr5; 5 μM chromium(VI), 6 h induction, SNR > 2 = significant response) read?
**A.** 5

**Q.** And the “Concentration Sensed” value (E. coli LABEC01/Cr5; chrB/pchrB from O. tritici transposon, native RBS)?
**A.** 5 µM

**Q.** What does the source list for `[Cu]` [Copper]?
**A.** SNR after 6 h (E. coli MG1655/Cu1; 25 μM copper, 6 h induction, SNR > 2 = significant response): 65; Concentration Sensed in Microfluidic Device (E. coli MG1655/Cu1; cueR/pcopA from E. coli genome, native RBS): 25 µM

**Q.** Which results are given for `[Pb]` [Lead]?
**A.** SNR after 6 h (E. coli LABEC01/Pb2; 7 μM lead, 6 h induction, SNR > 2 = significant response): 18; Concentration Sensed in Microfluidic Device (E. coli LABEC01/Pb2; pbrR/ppbrR from C. metallidurans plasmid, synthetic RBS): 7 µM
